Literature values in patent US20110008426A1, “MODIFIED RELEASE PHARMACEUTICAL COMPOSITIONS COMPRISING MYCOPHENOLATE AND PROCESSES THEREOF” (priority 2008, published 2011).
Several values for one entry are separate records, joined by “and”; a condition that tells them apart may be missing. Equal values may be shown once. Read-outs that look alike come from different tables or passages of the source.

Tests used:
[1] = MMF 1 g b.i.d; EC-MPS 720 mg b.i.d
[2] = not given; remark: listed apart in the source
[3] = 423 de novo kidney allograft recipients
[4] = not given; remark: listed apart in the source
[5] = transplant patients, acute rejection
[6] = controlled de novo and maintenance renal studies, patients

| Compound | Cmax of MPA [1] [µg/mL] | Adverse Events: Anemia [6] [%] | Adverse Events: Constipation [6] [%] | Adverse Events: Diarrhoea [6] [%] | Adverse Events: Dyspepsia [6] [%] | Adverse Events: Insomnia [6] [%] | Adverse Events: Leukopenia [6] [%] | Adverse Events: Nausea [6] [%] | Adverse Events: Urinary Tract Infection [6] [%] | Adverse Events: Vomiting [6] [%] | adverse effects: blood and lymphatic system disorders ([2]; www.rxlist.com) [%] | adverse effects: constipation ([2]; www.rxlist.com) [%] | adverse effects: diarrhea ([2]; www.rxlist.com) [%] | adverse effects: nausea ([2]; www.rxlist.com) [%] | adverse effects: urinary tract infections ([2]; www.rxlist.com) [%] | adverse effects: vomiting ([2]; www.rxlist.com) [%] | incidence of GI adverse events [3] [%] | other results |
| --- | --- | --- | --- | --- | --- | --- | --- | --- | --- | --- | --- | --- | --- | --- | --- | --- | --- | --- |
| COc1c(C)c2c(c(O)c1C/C=C(\C)CCC(=O)O)C(=O)OC2 [MPS, mycophenolate sodium] | 18.93 | 21.9 | 39.5 | 23.5 | 19 | 23.8 | 20.5 | 27.1 | 33.3 | 23 | 41.8 | 38 | 23.5 | 29 | 29.1 | 23 | 79.8 | Adverse Events: CMV infections (in vivo): 18.1%; adverse effects: CMV infection ([2]; in vivo): 20.2%; solubility of the drug ([4]; pH above 6.0): high solubility; solubility of the drug ([4]; pH below 6.0): poor solubility |
| COc1c(C)c2c(c(O)c1C/C=C(\C)CCC(=O)O)C(=O)OC2 [mycophenolic acid, Mycophenolic acid] | – | – | – | – | – | – | – | – | – | – | – | – | – | – | – | – | – | mycophenolic acid AUC expected to yield 50% of maximal achievable efficacy [5]: 15 µg·h/mL; mycophenolic acid AUC that would yield 90% efficacy [5]: 25 µg·h/mL and 40 µg·h/mL |
| COc1c(C)c2c(c(O)c1C/C=C(\C)CCC(=O)OCCN1CCOCC1)C(=O)OC2 [MMF, mycophenolate mofetil] | 21.3 | 21.6 | 38.0 | 24.8 | 22.5 | 23.5 | 19.2 | 29.1 | 29.1 | 20 | 42.4 | 39.5 | 24.8 | 27.1 | 33.3 | 20 | 77.1 | Adverse Events: CMV infections [6]: 20.2%; adverse effects: CMV infection ([2]; www.rxlist.com): 18.1% |
